Source: patent publication US8741944B2, “Anti-infective agents against intracellular pathogens” (priority 2007, dated 2014)

Test system: PC-3 cells
Assay: Apoptosis analysis in PC-3 cells (DNA fragmentation ELISA, PARP cleavage)
Type: cell-based, human
Conditions: 1% FBS-containing medium
Procedure: Apoptosis analysis Two methods were used to assess drug-induced apoptotic cell death: detection of DNA fragmentation by the Cell Death Detection ELISA kit (Roche Diagnostics. Mannheim, Germany) and Western blot analysis of poly-(ADP-ribose)polymerase (PARP) cleavage. […] In brief, 4×10^5 PC-3 cells were cultured in a T-25 flask for 24 h before treatment. Cells were treated with the DMSO vehicle or the test agent at the indicated concentrations for 6-24 h, collected, and cell lysates equivalent to 2×10^3 PC-3 cells were used in the ELISA. For the PARP cleavage assay, drug-treated cells were collected 4-8 h post-treatment, washed with ice-cold PBS, and resuspended in lysis buffer containing 20 mM Tris-HCl, pH 8, 137 mM NaCl, 1 mM CaCl2, 10% glycerol, 1% Nonidet P-40, 0.5% deoxycholate, 0.1% SDS, 100 μM 4-(2-aminoethyl)benzenesulfonyl fluoride, leupeptin at 10 μg/mL, and aprotinin at 10 μg/mL. Soluble cell lysates were collected after centrifugation at 10,000 g for 5 min. Equivalent amounts of proteins (60-100 μg) from each lysate were resolved in 8% SDS-polyacrylamide gels. Bands were transferred to nitrocellulose membranes, and analyzed by immunoblotting with anti-PARP antibody.

Substance: 4-[5-(2-Phenanthrenyl)-3-(trifluoromethyl)-1H-pyrazol-1-yl]-phenyl -guanidine [Compound 71]
- apoptotic death in PC-3 cells (DNA fragmentation and PARP cleavage): induced apoptotic death
